The test system of series [1] is human panelists (which sample is sweeter). Put plainly: Sweet flavor and sweet flavor enhancement, human panelists, paired comparison test. Format: in vivo. The method, then: Test samples containing experimental compounds are presented in pairs to the panelist and they are asked to determine which of the sample is sweeter. A group of 10-16 or more panelists participated in each test. Subjects refrained from eating or drinking (except water) for at least 1 hour prior to the test. Subjects rinsed with water several times to clean the mouth.
All samples are prepared with ethanol to ensure dispersion of the compound in solution. This includes samples without compound; all solutions are balanced for 0.1% ethanol.
Samples are also prepared with low sodium buffer (pH 7.1) in place of water. Buffer contains 0.952 g of KCl, 5.444 g of Na2HPO4, and 0.952 g of KH2PO4 in 40 L of DIUF water. Sample volumes are usually 20 ml.
In one paired comparison test, the panelist is presented with two different samples and asked to identify the sample which is sweeter. The samples within a paired comparison test are presented in a randomized, counterbalanced order. Panelists have up to a 1 minute delay between taste tests to clear the mouth of any tastes.
Binomial probability tables are used to determine the probability of the correct number of responses occurring for each test at alpha=0.05.

Series [2] deals with human panelists (perceived sweetness intensity). In words: Sweet flavor and sweet flavor enhancement, human panelists, scaling test. As to conditions: for Average sweetness score (line scale 0 to 15): Table 29; for Average Sweetness: Table 36, n = 13. The format is in vivo. The source says:
Test samples containing experimental compounds were compared to a dose-response curve for perceived sweetness intensity of sweeteners (such as, for example, sucralose, sucrose, fructose and other sweeteners) concentrations to determine equivalent sweetness intensity.
A group of eight or more panelists tasted solutions including sweeteners at various concentrations, as well as the experimental compound both with and without added sweetener. Panelists then rated sweetness intensity of all samples on a structured horizontal line scale, anchored from 0 to 15, where 0 equals no sweetness and 15 equals equivalent sweetness to a 15% sucrose sample. Scores for sweetness intensity were averaged across panelists. Then using the average scores and/or equation of the line for the sweetener dose-response curve, equivalent sweetness concentrations were determined for the samples containing experimental compounds.
Subjects had been previously familiarized with the key attribute taste and were trained to use the 0 to 15 point line scale. Subjects refrained from eating or drinking (except water) for at least 1 hour prior to the test. Subjects ate a cracker and rinsed with water several times to clean the mouth.
Sweetener solutions are provided at a wide range of concentrations such as 100 ppm, 200 ppm, 300 ppm, 400 ppm, and 500 ppm for sucralose, or between 0% and 12% for sucrose or fructose, in order to create a dose-response curve. Samples containing experimental compound were prepared both alone and in a 100 ppm sucralose solution or a 6% sucrose or fructose solution. All samples were made up in low sodium buffer pH 7.1. In order to aid dispersion, solutions can be made up in 0.1% ethanol.
The solutions were dispensed in 20 ml volumes into 1 oz. sample cups and served to the subjects at room temperature. All samples were presented in randomized counterbalanced order to reduce response bias. Further, two sessions of testing may be used to check panel precision.
Subjects tasted each sample individually and rate sweetness intensity on the line scale prior to tasting the next sample. All samples were expectorated. Subjects may retaste the samples but can only use the volume of sample given. Subjects must rinse with water between samples. Eating an unsalted cracker between samples may be required depending on the samples tasted.
The scores for each sample were averaged across subjects and standard error was calculated. The dose-response curve was plotted graphically, and this may be used to ensure the panel is rating accurately; i.e., increasing the concentration of sucralose should correspond to increased average scores for sweetness. A 2-way ANOVA (factors being samples and panelists) and multiple comparison tests (such as Tukey's Honestly Significant Difference test) can be used to determine differences among samples and/or panelists. A 3-way ANOVA, with sessions as the third factor, can be used to determine if there is any difference in the ratings between sessions.

[3] abbreviates: Table 35, 6% Fructose alone vs 6% Fructose + 100 μM C20, of n = 19.

Take `Nc1nc(=O)[nH]c2sc3c(c12)CCOC3` [Compound 568]: the “Sample selected as more sweet by panelists, Total” value in series [1] (Table 33, 6% Fructose + 100 μM compound vs 6% Fructose, of n = 26 (13 panelists × 2 reps)) came out at 20.

In the case of `C/C=C/c1cccc2c1C(N)=NS(=O)(=O)N2` [Example 130, 4-Amino-5-((E)-prop-1-enyl)-1H-benzo[c][1,2,3]thiadiazine-2,2-dioxide], the melting point is > 260 °C.

Consider `CC(C)=Cc1c(F)ccc2c1C(N)=NS(=O)(=O)N2` [Example 134, 4-Amino-6-fluoro-5-(2-methylprop-1-enyl)-1H-benzo[c][1,2,3]thiadiazine-2,2-dioxide], for which the melting point was > 250 °C.

On to `Nc1nc(=O)[nH]c2sc3c(c12)CCOC3` [Example 146, 4-Amino-5,6-(5′,7′-dihydro-4′H-[2′,3′-c]pyrano)thieno[2,3-d]-pyrimidine-2(1H)-one], for which the melting point is > 260 °C.

With `NC1=NS(=O)(=O)Nc2cccc(OC3CCCCC3)c21` [Example 168, 4-Amino-5-(cyclohexyloxy)-1H-benzo[c][1,2,6]thiadiazine-2,2-dioxide], the melting point is 215 to 216 °C.

With `NC1=NS(=O)(=O)Nc2cccc(OC3CCCC3)c21` [Example 169, 4-Amino-5-(cyclopentoxy)-1H-benzo[c][1,2,6]thiadiazine-2,2-dioxide], the melting point was > 260 °C.

For the compound `NC1=NS(=O)(=O)Nc2cccc(OCC3CC3)c21` [Example 186, (S)-4-Amino-5-(cyclopropylmethoxy)-1H-benzo[c][1,2,6]thiadiazine-2,2-dioxide], the melting point was in the range of 246 to 247 °C.

Take `CCCNC(=O)C(C)(C)COc1cccc2c1C(N)=NS(=O)(=O)N2` [Example 215, 3-(4-Amino-2,2-dioxide-1H-benzo[c][1,2,6]thiadiazin-5-yloxy)-2′,2′-dimethyl-N-propylpropanamide]: the melting point was in the range of 225 to 226 °C.

`CC(C)(COc1cccc2c1C(N)=NS(=O)(=O)N2)NC(=O)c1ccccc1` [Example 216, N-(1-(4-amino-2,2-dioxide-1H-benzo[c][,6]thiadiazin-5-yloxy)-2′-methylpropan-2′-yl)benzamide] gave a melting point of 235 to 236 °C.

For the compound `O=C(CO)[C@@H](O)[C@H](O)[C@H](O)CO` [Fructose, fructose], the “Sample selected as more sweet by panelists, Total” value turned out to be 6 in series [1] (Table 33, 6% Fructose alone vs 6% Fructose + 100 μM compound, of n = 26); 6 in series [1] (Table 34, 6% Fructose alone vs 6% Fructose + 100 μM C19, of n = 24); 0 in series [1] (setting [3]). Further, the “Sample selected as more sweet by panelists, Test 1” value in series [1] (setting [3]) is given as 0; in series [1] (Table 37, 6% Fructose alone vs 6% fructose + 25 μM C21, of n = 25) it was 5; in series [1] (Table 38, 7% Fructose alone vs 6% fructose + 25 μM C21, of n = 25) it was 13. In addition, the “Average sweetness score (line scale 0 to 15)” value in series [2] (6% fructose alone) stood at 6.9; in series [2] (8% fructose alone) it was 8.6; in series [2] (9% fructose alone) it was 9.3; in series [2] (10% fructose alone), 9.5. For the same compound, the “Average Sweetness” value in series [2] (2% Fructose alone) is recorded as 2.3; in series [2] (4% Fructose alone), 4.2; in series [2] (6% Fructose alone), 5.9.

What is called melting point is the temperature, or range, at which the solid turns liquid.

For the origin of these results see US8633186B2, “Modulation of chemosensory receptors and ligands associated therewith” (Senomyx Inc., priority 2007, dated 2014).
